This passage reports RP-LC retention time results from the METLIN SMRT retention time set (Domingo-Almenara et al. 2019).

The data set in a line: gradient 5% acetonitrile 3 min, to 50% in 2 min, to 85% in 15 min, held 3 min, 100 µL/min. To be noted: column: Zorbax Extend-C18 2.1 x 50 mm; eluents: water / acetonitrile, 0.1% formic acid. In a few lines: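 Using water and acetonitrile that each contained 0.1% formic acid, mixtures of ~100 pure standards were separated at 100 μL/min on a Zorbax Extend-C18 column (2.1 × 50 mm, 1.8 μm). The HPLC fed a quadrupole time-of-flight mass spectrometer working in positive and negative ionization mode, with dead and dwell volumes of 40 μL and 900 μL. Data were acquired over 3 months. Retention time was read from computationally picked adduct peaks after manual inspection of each.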
The molecule `O=C(COc1ccccc1F)Nc1ccc2c(c1)CN(C(=O)c1ccco1)CC2` returned an RP-LC retention time of 770 s.
Turning to `Cc1ccc(NC(=O)C2CCCN(c3ncnc4c3oc3ccccc34)C2)cc1C` (centres undefined), the RP-LC retention time was 868 s.
`CCOc1ccccc1-c1nc(C2CC(=O)N(c3ccc(C)cc3)C2)no1` (centres undefined) had an RP-LC retention time of 1090 s.
For `CNC(=O)C1CCCN(c2nc3ncn(CC(=O)Nc4ccc(F)cc4)c(=O)c3s2)C1` (centres undefined), the RP-LC retention time turned out to be 634 s.
The result for `Cc1noc(-c2ccc(OC3CN(C(=O)Nc4ccccc4)C3)cc2)n1` reads 737 s; that for `Cc1nn(C)c(C)c1CCN(C)C(=O)C1Cn2cccc2C(=O)N1C` (centres undefined), 680 s.
Consider `CC(C)(C)C1CCc2c(sc3nc(CCC(=O)N4CCC(C(N)=O)CC4)[nH]c(=O)c23)C1` (centres undefined), for which the RP-LC retention time was 779 s.
In turn, `CC(C)NC(=O)N1CCC[C@H]1c1nc(-c2ccc(F)cc2)n[nH]1` came in with an RP-LC retention time of 678 s.
The result for `O=C(Nc1ccccc1)N1CCN(c2nc(-c3ccccc3)ns2)CC1` reads 1020 s; that for `Cc1nc2cc(N3CC(C(=O)Nc4ccc(F)c(C)c4)CC3=O)ccc2o1` (centres undefined), 753 s.
`CCc1nn(CC(=O)NCCc2c[nH]c3ccccc23)c(=O)c2cc3sc(C)cc3n12` registered an RP-LC retention time of 894 s.
Consider `CCn1cc(C)c(C(=O)O)c1CC(=O)NCc1ccco1`, for which the RP-LC retention time was 702 s.
The result for `COc1ccc(-c2c(C(=O)O)nnn2-c2ccc(OC)c(OC)c2)cc1` reads 712 s.
`COc1ccccc1-c1nc(-c2ccc3ncn(C)c3c2)no1` displayed an RP-LC retention time of 674 s.
The result for `Cc1cc(=O)n(CC(=O)NC(C)CCc2ccccc2)c(N2CCc3ccccc3C2)n1` (centres undefined) reads 872 s; that for `CCN(CC)C(=O)CSc1nnc(-c2ccc3c(c2)OCCCO3)n1C`, 691 s; that for `CN(C)C[C@@H]1CN(S(C)(=O)=O)C[C@H]1NC(=O)c1ccsc1`, 569 s.
`Cc1cccc(-c2noc(C3CCCN3S(=O)(=O)c3cccc(Cl)c3C)n2)c1` (centres undefined) returned an RP-LC retention time of 1310 s.
Take `COc1ccccc1NC(=O)C1CCN(C(=O)C2Sc3ccccc3NC2=O)CC1` (centres undefined): the RP-LC retention time was 753 s.
Molecule `COc1ccccc1CNC(=O)c1nc(N2CCOCC2)c2c(C)cc(C)nc2n1` came in with an RP-LC retention time of 643 s.
The molecule `O=C(CC1CCCC1)N1CCCC(c2nn[nH]n2)C1` (centres undefined) registered an RP-LC retention time of 660 s.
The molecule `O=C(Nc1ccc(F)cc1)C1CCCN(c2ccc(=O)n(-c3ccc(F)cc3)n2)C1` (centres undefined) came in with an RP-LC retention time of 849 s.
As to `CCSc1nnc(NC(=O)Cc2csc(NC(=O)c3cnccn3)n2)s1`, the RP-LC retention time amounted to 678 s.
As to `CCNc1nc(N2CCN(C3CCCCC3)CC2)nc2c1cnn2C`, the RP-LC retention time is 614 s.
As for `C=CCN(CC=C)C(=O)Cn1c(C)c(Cc2ccccc2)c(=O)n2nc(-c3ccccc3)nc12`, the RP-LC retention time came out at 1040 s.
For the molecule `CN1CCC(c2c[nH]c3ccccc23)C1` (centres undefined), the RP-LC retention time worked out at 648 s.
The result for `COc1cc2c(cc1OC)C(C(=O)NCCN(C)C)C(c1ccccc1F)N(C)C2=O` (centres undefined) reads 599 s.
To `CC(=O)c1cccc(NC(=O)Cn2c(=O)n(-c3ccccc3)c(=O)c3c2cc(C)n3C)c1` belongs 763 s; to `CC(C)(C)c1cc(NC(=O)COc2ccccc2F)n(CCO)n1`, 759 s.
For `Cc1nnc(-c2ccc3ccn(CC(=O)NCc4ccc(N(C)C)cc4)c3c2)o1`, the RP-LC retention time turned out to be 632 s.
To `Cc1ccc(NC(=O)N2CCc3nc(-c4ccc(F)cc4)ncc3C2)cc1C` belongs 1020 s; to `N#Cc1cccc(CN2CCCC(c3nc(-c4ccncc4)n[nH]3)C2)c1` (centres undefined), 494 s.
To `CNC(=O)c1ccc(C)c(-n2c(C)cc(OCc3ccc(F)cc3F)c(Br)c2=O)c1` belongs 818 s; to `Cc1ccc2c(c1)cc(S(=O)(=O)c1ccccc1)c(=O)n2CC(=O)NCCC(C)C`, 938 s; to `COc1ccc(C2(C(=O)N3CCC(n4c(C)cnc4C4CCC4)CC3)CC2)cc1`, 662 s.
To `Cc1cccc(NC(=O)N2CCN(c3cc(N4CCCCC4)ncn3)CC2)c1C` belongs 596 s; to `CCN1CCCn2cc(S(=O)(=O)Nc3ccc(Cl)cc3)cc2C1=O`, 765 s; to `CCOC(=O)C1=C(CN2CCCCC2)NC(=O)NC1c1cccs1` (centres undefined), 545 s.
Take `Cc1cc2nn(CC(=O)N3CCCC3)c(=O)n2c(Nc2ccc(C)c(F)c2)n1`: the RP-LC retention time was found to be 922 s.
To `COc1cccc(CN2CCc3nc(N4CCN(c5ccccc5)CC4)ncc3C2)c1OC` belongs 762 s; to `COc1ccc(OC)c(S(=O)(=O)N2CCC(n3c(C)cnc3C)CC2)c1`, 630 s.
On to `COc1cccc2c(C)nc(NC3=NCN(Cc4cccnc4)CN3)nc12`, for which the RP-LC retention time is 567 s.
The result for `CCOc1cc(=O)n2c(c1C(=O)Nc1ccc(Br)c(C)c1)CCCC2` reads 848 s; that for `COc1cc(OC)cc(C(=O)N2CCN(c3cc(=O)n(C(C)C)c(=O)n3C(C)C)CC2)c1`, 855 s; that for `CN1C(=O)COc2ccc(-c3csc(NC(=O)Cc4ccccc4)n3)cc21`, 898 s.
To `CCOc1ccccc1NC(=O)N1C[C@H](c2nc(-c3cccnc3)no2)[C@@H](C)C1` belongs 937 s.
In turn, `Cc1cnnn1-c1ccc(C(=O)Nc2cc(Cl)ccc2Cl)cc1` gave an RP-LC retention time of 815 s.
To `CCn1cnc(S(=O)(=O)N2CCC(C(=O)Nc3cccc4ccccc34)CC2)c1` belongs 732 s.
In turn, `CCOc1nc2ccccc2nc1N1CCCC(C(=O)Nc2cccc(F)c2)C1` (centres undefined) displayed an RP-LC retention time of 1200 s.
To `CN(C)C(=O)c1cnn(-c2cccc(F)c2)c1-n1cccc1` belongs 806 s.
Molecule `O=c1n(Cc2ccccc2)nc2n1CCN(S(=O)(=O)c1ccccc1)CC2` showed an RP-LC retention time of 793 s.
To `CNC(=O)c1cn(-c2ccc(S(=O)(=O)N3CCCC3)cn2)cn1` belongs 622 s.
The result for `Cn1cc(C(=O)NCc2ccc(Cl)cc2)c(S(=O)(=O)N2CCSCC2)n1` reads 909 s.
The molecule `Cc1cc(C(F)(F)F)nn1CC(=O)N1CCC(c2noc(-c3ccccn3)n2)C1` (centres undefined) registered an RP-LC retention time of 769 s.
To `CCOc1ccc(NC(=O)N2CCC(n3cnc4ccc(Cl)cc4c3=O)CC2)cc1` belongs 844 s; to `CCn1cc(CCNC(=O)Nc2ccc(C)cc2Cl)c2cccnc21`, 812 s.
For `Cc1nn(-c2ccccc2)c2ccn(CC(=O)N3CCN(c4ccccc4Cl)CC3)c(=O)c12`, the RP-LC retention time turned out to be 642 s.
Molecule `O=C1Nc2ccccc2SC1C(=O)N1CCC(C(=O)N2CCn3c2nc2ccccc23)CC1` (centres undefined) came in with an RP-LC retention time of 688 s.
To `O=C(NCc1cccnc1)C1CCN(S(=O)(=O)c2cc(-c3noc(C4CCC4)n3)cs2)CC1` belongs 702 s.
